Here are results for six compounds from patent EP0223671A1, “Medicament with a synergistic anti-inflammatory effect on the basis of a corticosteroid and a beta-agonist” (CENTRE INTERNATIONAL DE RECHERCHES DERMATOLOGIQUES GALDERMA …, priority 1985, dated 1987).

For assay [1], the system named is oedème de l'oreille induit par l'huile de croton. Description: Croton oil-induced ear oedema test in the rat. In kind it is in vivo. Particulars: inhibition of oedema vs control animals, topical on right ear 1 h before croton oil, read 6 h after, hydro-ethanolic gel vehicle. As to the method:
On applique de façon normalisée sur les faces interne et externe de l'oreille droite de rats une solution d'huile de croton ayant la composition suivante: • - pyridine : 4ml • - oxyde de diéthyle: 13ml • - huile de croton^*: 2ml • - eau qsp 20ml ^* SIGMA réf. C4755
Les animaux traités reçoivent, une heure avant l'application de l'huile de croton, une application sur l'oreille droite par voie topique, du produit étudié dans le véhicule suivant (placebo):gel hydroéthanolique à 2X d'hydroxypropyl cellulose (KLUCEL HF); (proportion eau-éthanol : 80/20).
Les animaux témoins ne reçoivent que l'application d'huile de croton.
Six heures après l'application d'huile de croton, on évalue l'importance de l'oedème par comparaison de l'oreille droite et de l'oreille gauche. On calcule ensuite l'inhibition de l'oedème, en pourcentage, par rapport aux animaux témoins.

A further assay concerns érythème induit par UVB. Description: UVB-induced erythema test in the guinea pig. Particulars: dose 5 % p/v, 100 microlitres per site, topical 1 h after irradiation; vs animals given vehicle alone. In kind it is in vivo, cobaye. The method, then: Les flancs des cobayes sont rasés à la tondeuse 24 heures avant l'expérience. On soumet les animaux à une irradiation à l'aide d'une lampe à vapeur de mercure. On irradie pendant 30 secondes deux sites de diamètre 1,5cm sur chaque flanc. Une heure après l'irradiation, on applique par voie topique le produit étudié sur chaque site irradié d'un seul flanc. Les observations de l'érythème sont faites 2h, 3,5h, 5h et 24h après l'application du produit. L'érythème est évalué selon une échelle de 0 à 5.
Les produits sont appliqués dans le véhicule suivant: • N,N-diméthylacétamide: 20ml • acétone : 40ml • éthanol : 40ml
On applique un volume de 100 microlitres par site.
On évalue l'importance de l'érythème en comparant les flancs droit et gauche. On calcule ensuite l'inhibition de l'érythème, en pourcentage, par rapport aux animaux témoins ayant reçu une application du véhicule seul.

Each structure is given as a SMILES string. Counter-ions that a name gives are not always drawn. Marks after values point to notes of the source that are not given here.

On to `CCCC(=O)O[C@]1(C(=O)CO)CC[C@H]2[C@@H]3CCC4=CC(=O)CC[C@]4(C)[C@H]3[C@@H](O)C[C@@]21C` [HYDROCORTISONE 17 BUTYRATE, Hydrocortisone-17 butyrate], for which the “POURCENTAGE D'INHIBITION” value in assay [1] (dose 0.1 % p/v) was found to be 30%.

On to `C[C@]12CCC(=O)C=C1CC[C@@H]1[C@@H]2[C@@H](O)C[C@@]2(C)[C@H]1CC[C@]2(O)C(=O)CO` [HYDROCORTISONE, Hydrocortisone], for which the “POURCENTAGE D'INHIBITION” value in assay [1] (dose 0.1 % p/v) is reported as 14%. Moreover, in the assay on érythème induit par UVB, the “POURCENTAGE D'INHIBITION DE L'ERYTHEME 5 HEURES APRES APPLICATION” value was found to be 3 NS %.

In the case of `CC(C)NCC(O)COc1cccc2ccccc12` (stereo not shown) [PROPRANOLOL], the “P[…]'INHIBITION” value in assay [1] (dose 0.5 % p/v) was determined as 5%.

With `CC(C)(C)NCC(O)c1ccc(O)c(CO)c1` (stereo not shown) [SALBUTAMOL SULFATE, 2-(tert-butylamino)-1-(4-hydroxy-3-hydroxyphényl)éthanol], in assay [1] (dose 0.5 % p/v), the “POURCENTAGE D'INHIBITION” value amounted to 14%.

For the compound `CC(C)(C)NCC(O)c1ccc(O)c(CO)c1` (stereo not shown) [SALBUTAMOL, 2-(tert-butylamino)-1-(4-hydroxy-3-hydroxyphényl)éthanol], the “POURCENTAGE D'INHIBITION DE L'ERYTHEME 5 HEURES APRES APPLICATION” value in the assay with érythème induit par UVB is reported as 14 * %.

Turning to `CC(C)(C)NCC(O)c1cc(O)cc(O)c1` (stereo not shown) [TERBUTALINE SULFATE, 1-(3,5-dihydroxyphényl)-2-(tert-butylamino)éthanol], the “POURCENTAGE D'INHIBITION” value in assay [1] (dose 0.5 % p/v) is 12%.
